# Measurements published in patent US8754192B2, “Compositions comprising homogeneously glycosylated erythropoietin” (Sloan-Kettering Institute for Cancer Research, priority 2006, dated 2014).
# Key:
# [1] = biological target: T1, EPO-R (Homo sapiens, UniProt P19235); conditions: in vitro; compared to rHuEPO; cited from earlier work
# T1 sequence (P19235 25-508): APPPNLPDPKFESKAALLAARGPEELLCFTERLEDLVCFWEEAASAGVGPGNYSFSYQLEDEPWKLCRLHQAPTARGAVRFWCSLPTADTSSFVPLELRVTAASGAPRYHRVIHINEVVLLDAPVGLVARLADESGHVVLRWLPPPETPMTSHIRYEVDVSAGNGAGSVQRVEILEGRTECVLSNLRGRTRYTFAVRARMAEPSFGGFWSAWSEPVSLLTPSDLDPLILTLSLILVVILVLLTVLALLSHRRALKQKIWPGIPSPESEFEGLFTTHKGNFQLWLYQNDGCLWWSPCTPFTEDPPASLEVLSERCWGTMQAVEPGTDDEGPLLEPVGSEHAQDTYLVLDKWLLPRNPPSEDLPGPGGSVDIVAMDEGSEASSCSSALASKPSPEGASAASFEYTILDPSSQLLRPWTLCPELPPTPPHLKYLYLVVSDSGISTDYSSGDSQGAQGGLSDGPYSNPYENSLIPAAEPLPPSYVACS
# [2] = compared to rHuEPO; cited from earlier work
# [3] = Solubility of the peptide product in MeOH; assay type: physicochemical; conditions: fully protected peptide made with pseudoproline/Dmb dipeptides, 'as high as', read-out: solubility (concentration easily achieved)
# Description: To improve the peptide synthesis yields and purities, as well as the solubilities of crude products, we attempted various strategies, including the replacement of the synthesized chlorotrityl resin with commercially available NovaSyn® TGT resin (preloaded with Fmoc-amino acids), the use of Ser/Thr-derived oxazolidines (pseudoprolines) and Dmb (2,4-dimethoxybenzyl)dipeptides, 1, 2, 3 and 4 shown below. While 1, 2 and 4 are available in large scale, 3 had to be prepared from a multistep synthesis. These dipeptides could be incorporated into the growing peptide chain in the same manner as normal amino acids activated by HATU. The synthesis outlined below exploited all the beneficial properties of these strategies and produced […] as determined by LC-MS.
molecule,measurement,setting,value
darbepoetin alfa,affinity for the EPO-R,[1],diminished by approximately one-fourth
same,activity in vivo,[2],remained the same
COc1ccc(CN(C(=O)[C@H](CC(=O)OCc2ccc(NC(CC(C)C)=C3C(=O)CC(C)(C)CC3=O)cc2)NC(=O)[C@@H](NC(=O)[C@H](Cc2cn(C(c3ccccc3)(c3ccccc3)c3ccccc3)cn2)NC(=O)[C@H](CC(C)C)NC(=O)[C@H](CCC(=O)NC(c2ccccc2)(c2ccccc2)c2ccccc2)NC(=O)[C@H](CC(C)C)NC(=O)[C@@H]2CCCN2C(=O)[C@H](CCC(=O)OCc2ccc(NC(CC(C)C)=C3C(=O)CC(C)(C)CC3=O)cc2)NC(=O)[C@H](Cc2cn(C(=O)OC(C)(C)C)c3ccccc23)NC(=O)[C@@H]2CCCN2C(=O)[C@H](CCC(=O)NC(c2ccccc2)(c2ccccc2)c2ccccc2)NC(=O)[C@H](COC(C)(C)C)NC(=O)[C@@H]2COC(C)(C)N2C(=O)[C@H](CC(=O)OC(C)(C)C)NC(=O)[C@@H](NC(=O)[C@H](CC(C)C)NC(=O)[C@H](CC(C)C)NC(=O)[C@H](C)NC(=O)[C@@H](N)CCC(=O)NC(c2ccccc2)(c2ccccc2)c2ccccc2)C(C)C)C(C)C)[C@@H](CCCCNC(CC(C)C)=C2C(=O)CC(C)(C)CC2=O)C(=O)N[C@@H](C)C(=O)N[C@H](C(=O)N2[C@H](C(=O)NCC(=O)N[C@@H](CC(C)C)C(=O)N[C@@H](CCCNC(=N)NS(=O)(=O)c3c(C)c(C)c4c(c3C)CC(C)(C)O4)C(=O)N[C@@H](COC(C)(C)C)C(=O)N[C@@H](CC(C)C)C(=O)N3[C@H](C(=O)N[C@H](C(=O)N[C@@H](CC(C)C)C(=O)N[C@@H](CC(C)C)C(=O)N[C@@H](CCCNC(=N)NS(=O)(=O)c4c(C)c(C)c5c(c4C)CC(C)(C)O5)C(=O)N[C@@H](C)C(=O)N[C@@H](CC(C)C)C(=O)NCC(=O)O)[C@@H](C)OC(C)(C)C)[C@@H](C)OC3(C)C)COC2(C)C)C(C)C)c(OC)c1 [EPO(78-113)],solubility,[3],4.6 mM
